Results: article PMC11955804, “Histidine-rich enantiomeric peptide coacervates enhance antigen sequestration and presentation to T cells” (Chemical Science, 2025)

Key:
Format in all cases: physicochemical
[1] = Encapsulation efficiency measurement; settings: 1 mM peptide, 1 µM eGFP in PBS; centrifuged 15,000 × g 10 min; fluorescence of supernatant (λex 395 nm, λem 510 nm)
Description: Encapsulation efficiency measurements […]
powders to a final peptide concentration of 1 mM. Cargo concentrations in the stock solutions […]
nm and λem: 519 nm). For small molecule dyes, similar methods were used. The encapsulation efficiency was determined as reported previously 12.
Cellular uptake and antigen presentation assays […]
to addition of OVA-loaded coacervates. Final OVA concentration was 1 µg/mL for time- […]
37°C and complete RPMI media served as controls. Soluble OVA and PBS treated cells were used as controls for antigen delivery.

[2] = Droplet coalescence assay; settings: video still images over 15 min; mixing of fluorophore-loaded droplets
Description: wavelength range of 215–260 nm with a bandwidth of 1.00 nm, 0.5 nm step. Solvent background was subtracted from each spectrum and data converted to mean residue ellipticity (MRE).
Droplet coalescence assays
Experiments were conducted to visualize the dynamic process of droplet fusion by capturing a series of still images over 15 min, with each acquisition every 500 ms. Contrast and brightness were adjusted to ensure optimal visibility of the coacervates, and noise cancellation was applied to reduce background interference. Frame correction aligned the images to account for shifts that occurred during capture. Additional enhancements included sharpening to visualize finer details and color correction to ensure that the visual representation closely matched the actual observation. The images were meticulously stacked to create a continuous video sequence that provided a dynamic view of the peptides' behavior, showing the evolution of coacervates from their initial formation, through stabilization and fusion. Significant fusion events were identified and marked with arrows. Advanced tracking algorithms were employed to follow movement and changes within the coacervates, and event segmentation was used to isolate specific interactions […]
Stem cell-derived cardiomyocytes and confocal microscopy […]

[3] = Optical microscopy of coacervate formation (LLPS); settings: optical microscopy, 1× PBS; across multiple synthesis batches
Text: (§1) NaCl) was used to study ionic strength effects. The absorbance was further converted to turbidity using methods previously described 1 and data was plotted as relative turbidity.
(§2) Optical microscopy and dynamic light scattering (DLS)
Droplets were visualized in 1×PBS using NCI Leica DMC4500 microscope in reflection mode with differential interference contrast. Images were captured with a DMC4500 camera under the control of Leica LAS X software (version 3.4.2). […]

[4] = Rheology testing of coacervate suspensions
Description: as §1, §2
Droplets were visualized in 1×PBS using NCI Leica DMC4500 microscope in reflection mode with differential interference contrast. Images were captured with a DMC4500 camera under the control of Leica LAS X software (version 3.4.2). Coacervate size was measured using 1 mM peptide solutions (1×PBS, pH 7.4) on a ZEN 3600 Zetasizer (Malvern Instruments, UK) using DLS-Zen 0040 specialized cuvettes. The results were reported as the means of three measurements, with 14 scans for each measurement.
Transmission electron microscopy (TEM)
Peptide solutions prepared for TEM were applied directly to 200-mesh, carbon-coated copper grids for 2 min and stained with 1% uranyl formate for 1 min. Excess stain was blotted using filter paper. Brightfield images were taken with a JEOL JEM-1400 transmission electron microscope with a NANOSPRT15 camera at an accelerating voltage of 120 kV.
Viscosity of the peptide solutions (1 mM or 2 mM) was tested using an ARES 2000ex rotational rheometer (TA Instruments, New Castle, DE). Peptides were freshly solubilized, and 170 µL of each was pipetted onto the rheometer stage. A 20-mm parallel plate geometry was lowered to a gap of 200 µm. Storage modulus (G′) and loss modulus (G″) were measured as a function of angular frequency (1–10 rad/s) with 1% strain. Viscosity was measured as a function […]
of shear rate (1–100 s-1). Separately, viscosity was measured using a Hagen-Poiseuille viscometer (RheoSense microVISC, San Ramon, CA) at a shear rate of 2500 s-1 to confirm viscosity differences at two different concentrations (1 mM and 2 mM).
Computational simulations
All simulations were performed using GROMACS 2023 2,3 and the CHARMM36m 4 force field. The necessary force field parameters and input files were generated using AlphaFold 5 predicted structures coupled with CHARMM-GUI 6. A single peptide chain was solvated in a 5-nm cubic box. […]

[5] = angular frequency 1–10 rad/s, 1% strain

eGFP loading efficiency [1] [%] | droplet fusion (coalescence) [2] | coacervate formation [3] | fold increase in G′ compared to valine droplets [4, 5] [fold] | viscosity of coacervate suspension ([4]; parallel plate rheology at fixed shear rate, 1 or 2 mM peptide, compared to valine or proline variants) | fold increase in G′ compared to proline [4, 5] [fold] | Substance
~90 | multiple rapid fusion events | Consistent coacervate formation | ~3 | greater viscosity | – | (GHGLY)4 [GL 20]
~75 | did not exhibit fusion behavior | Consistent coacervate formation | – | – | 2 | (GHGVY)4 [GV 20]
